Laboratory results as given in ChEMBL document CHEMBL4017479, “Design, synthesis and anticancer activity of novel nopinone-based thiosemicarbazone derivatives” (Bioorg Med Chem Lett, 2017).

How the values were obtained:
SMMC-7721 = test: Cytotoxicity against human SMMC7721 cells after 72 hrs by MTT assay; type: functional, cell-based; details: SMMC-7721, 72 h
[1] = Cytotoxicity against HLF1 cells after 72 hrs by MTT assay; type: functional, cell-based; details: Homo sapiens, HLF1, 72 h
MDA-MB-231 = test: cells; details: Homo sapiens, MDA-MB-231, 72 h
Description: Cytotoxicity against human MDA-MB-231 cells after 72 hrs by MTT assay

HeLa = test: cells; details: Homo sapiens, 72 h
Description: Cytotoxicity against human HeLa cells after 72 hrs by MTT assay

With COc1cc([C@@H]2c3cc4c(cc3[C@@H](O[C@@H]3O[C@@H]5CO[C@@H](C)O[C@H]5[C@H](O)[C@H]3O)[C@H]3COC(=O)[C@H]23)OCO4)cc(OC)c1O [ETOPOSIDE] the IC50 (SMMC-7721) was 40.4 µM, the IC50 [1] was greater than 40 µM and the IC50 (MDA-MB-231) was 29.3 µM. For the same molecule, the IC50 (HeLa) was 7.89 µM.
